Measured values taken from patent US9303033B2, “Pyrazolopyrimidines and related heterocycles as CK2 inhibitors” (SENHWA BIOSCIENCES, INC., priority 2009, dated 2016).
Read-outs that look alike come from different tables or passages of the source.

Key:
[1] = system: BxPC3 human pancreatic adenocarcinoma cells; assay: Cell proliferation assay with Alamar Blue (AB), BxPC3; type: cell-based
Experimental: (§1) A representative cell-proliferation assay protocol using Alamar Blue dye (stored at 4° C., use 20 ul per well) is described hereafter.
(§2) a. Split and trypsinize cells.
(§3) b. Count cells using hemocytometer.
(§4) c. Plate 4,000-5,000 cells per well in 100 μl of medium and seed into a 96-well plate according to the following plate layout. Add cell culture medium only to wells B10 to B12.
(§5) d. Add 100 μl of 2× drug dilution to each well in a concentration shown in the plate layout above. […] Total volume is 200 μl/well.
(§6) e. Incubate four (4) days at 37° C., 5% CO2 in a humidified incubator.
(§7) f. Add […] Alamar Blue reagent to each well.
(§8) g. Incubate for four (4) hours at 37° C., 5% CO2 in a humidified incubator.
(§9) h. Record fluorescence at an excitation wavelength of 544 nm and emission wavelength of 590 nm using a microplate reader.
(§10) In the assays, cells are cultured with a test compound for approximately four days, the dye is then added to the cells and fluorescence of […] dye is detected after approximately four hours. Different types of cells can be utilized in the assays (e.g., HCT-116 human colorectal carcinoma cells, PC-3 human prostatic cancer cells, MDA-MB231 human breast cancer cells, K-562 human chronic myelogenous leukemia (CML) cells, MiaPaca human pancreatic carcinoma cells, MV-4 human acute myeloid leukemia cells, and BxPC3 human pancreatic adenocarcinoma cells).

recombinant human PIM2 = recombinant human PIM2 (Homo sapiens (Human), UniProt Q9P1W9); assay: PIM-2 assay (33P-ATP filter binding); type: biochemical; details: for PIM2: % inh […]: at […] compound
Sequence of recombinant human PIM2 (Q9P1W9 whole entry): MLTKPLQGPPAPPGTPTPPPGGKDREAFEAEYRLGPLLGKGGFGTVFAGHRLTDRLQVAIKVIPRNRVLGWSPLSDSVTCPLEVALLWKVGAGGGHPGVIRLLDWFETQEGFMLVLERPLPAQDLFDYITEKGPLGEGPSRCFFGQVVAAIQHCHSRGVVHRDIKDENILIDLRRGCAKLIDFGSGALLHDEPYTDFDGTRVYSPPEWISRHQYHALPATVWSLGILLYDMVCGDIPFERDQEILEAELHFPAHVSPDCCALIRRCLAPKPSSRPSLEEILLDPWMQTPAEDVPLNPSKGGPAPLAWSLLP
Experimental: Test compounds dissolved and diluted in DMSO (2 μl) were added to a reaction mixture comprising 10 μl of 5× Reaction Buffer (40 mM MOPS pH 7.0, 5 mM EDTA), 10 μl of recombinant human PIM2 solution (4 ng PIM-2 dissolved in dilution buffer (20 mM MOPS pH 7.0; EDTA 1 mM; 5% Glycerol; 0.01% Brij 35; 0.1%; 0.1% 2-mercaptoethanol; 1 mg/ml BSA)) and 8 ul of water.

CK2 ααββ = CK2 ααββ (Homo sapiens (Human), UniProt P68400); assay: CK2 assay (cell-free, 33P-ATP, phosphocellulose filter plate); type: biochemical
Sequence of CK2 ααββ (P68400 whole entry): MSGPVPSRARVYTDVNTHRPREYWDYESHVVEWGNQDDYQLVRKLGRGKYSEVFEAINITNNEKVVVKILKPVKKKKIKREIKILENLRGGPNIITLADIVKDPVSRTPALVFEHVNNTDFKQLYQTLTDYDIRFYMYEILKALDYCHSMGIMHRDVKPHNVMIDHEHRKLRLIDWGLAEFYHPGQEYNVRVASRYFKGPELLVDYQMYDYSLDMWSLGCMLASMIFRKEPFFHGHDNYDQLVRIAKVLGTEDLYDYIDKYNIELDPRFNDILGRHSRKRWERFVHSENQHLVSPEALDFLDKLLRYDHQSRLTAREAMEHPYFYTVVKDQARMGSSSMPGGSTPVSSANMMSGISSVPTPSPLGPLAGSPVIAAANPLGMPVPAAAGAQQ
Sequence of CK2 ααββ (P67870 whole entry partner): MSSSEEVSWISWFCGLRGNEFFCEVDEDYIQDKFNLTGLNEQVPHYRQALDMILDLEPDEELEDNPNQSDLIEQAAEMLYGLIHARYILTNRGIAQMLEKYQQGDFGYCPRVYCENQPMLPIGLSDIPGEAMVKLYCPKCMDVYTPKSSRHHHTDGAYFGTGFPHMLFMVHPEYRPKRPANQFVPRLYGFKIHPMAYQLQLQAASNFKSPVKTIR
Experimental: Modulatory activity of compounds described herein was assessed in vitro in cell-free CK2 assays by the following method.
Reactions were maintained for 40 min at 23° C. The reactions were quenched with 100 ul of 0.75% Phosphoric acid, then transferred to and filtered through a Phosphocellulose filter plate (Millipore, MSPH-N6B-50). After washing each well 4 times with 0.75% Phosphoric acid, scintillation fluid (20 uL) was added to each well and the residual radioactivity was measured using a Wallac luminescence counter.

MDAMB453 = assay: Cell proliferation assay with Alamar Blue (AB), MDAMB453; type: cell-based
Experimental: as §1, §2, §3, §4, §5, §6, §7, §8, §9, §10

[2] = Homo sapiens, BXPC-3, read-out: AB: BxPC3
[3] = PIM2: IC50 (5 μM ATP), 5 μM ATP
[4] = Homo sapiens, MDA-MB-453, MDAMB453 cells, read-out: AB: MDAMB453
[5] = MDAMB453 cells, read-out: AB: MDAMB453 IC50
[6] = Tables 41B, 42B, read-out: PIM2: IC50

Row | Compound | IC50 [1, 2] [nM] | IC50 (recombinant human PIM2; [3]) [nM] | IC50 (CK2 ααββ) [nM] | IC50 (MDAMB453; [4]) [nM] | IC50 ([1]; read-out: AB: BxPC3 IC50) [nM] | PIM2: % inh […] (recombinant human PIM2) [%] | IC50 (MDAMB453; [5]) [nM] | IC50 (recombinant human PIM2; [6]) [nM] | IC50 (recombinant human PIM2; 5 um ATP, read-out: PIM2: IC50 (5 um ATP)) [nM]
1 | O=C1NC(=O)/C(=C/c2cnn3c(NC4CC4)cc(-c4cccc(OCC5=NCCN5)c4)nc23)N1 [Example K4] | 2580 | 1310 | < 100 | 1940 |  |  |  |  | 
2 | CN(C)c1ccc(-c2cc(NC3CC3)n3ncc(/C=C4\NC(=O)NC4=O)c3n2)cn1 [Example P4] | 549 | 75.4 | < 10 | 5280 |  |  |  |  | 
3 | Cc1c(N2CCN(c3ccccn3)CC2)nc2c(C=C3NC(=O)NC3=O)cnn2c1NC1CC1 [Example Q46] |  |  | < 10 |  | > 30000 | 13.151 | > 30000 |  | 
4 | O=C1NC(=O)/C(=C/c2cnn3c(NC4CC4)cc(-c4cccc(OCCN5CCOCC5)c4)nc23)N1 [Example A4] | > 30000 | > 2500 | < 10 | > 30000 |  |  |  |  | 
5 | N#Cc1ccc(Oc2cc(NC3CC3)n3ncc(C=C4NC(=O)NC4=O)c3n2)c(Cl)c1 [Compound V38] |  |  | < 10 |  | 5200 |  | 1380 | > 2500 | 
6 | O=C1NC(=O)/C(=C/c2cnn3c(NC4CC4)cc(-c4cccc(NS(=O)(=O)C5CC5)c4)nc23)N1 [Example Z4] | 29000 | > 2500 | < 10 | 15700 |  |  |  |  | 
7 | CC(C)(C)OC(=O)c1cccc(Nc2cc(Nc3cccc(Cl)c3)nc3c(/C=C4\NC(=O)NC4=O)cnn23)c1 [Example B7] | 10200 | > 2500 | < 10 | 7770 |  |  |  |  | 
8 | CN(C)C(=O)N1CCC(Nc2cc(Nc3cccc(Cl)c3)nc3c(/C=C4\NC(=O)NC4=O)cnn23)CC1 [Example N5] | 17400 | > 2500 | < 100 | 1570 |  |  |  |  | 
9 | CN(c1cccc(-c2cc(NC3CC3)n3ncc(/C=C4\NC(=O)NC4=O)c3n2)c1)S(C)(=O)=O [Example B5] | 5430 | > 2500 | < 10 | 26700 |  |  |  |  | 
10 | Cc1c(Nc2ccc(-n3cccn3)cc2)nc2c(/C=C3\NC(=O)NC3=O)cnn2c1NC1CC1 [Example E46] |  |  | < 100 |  | 20900 | 49.545 | 16600 |  | 
11 | O=C1NC(=O)/C(=C/c2cnn3c(NCC4CC4)cc(Nc4cccnc4)nc23)N1 [Example V1] | 6190 | > 2500 | < 100 | 5090 |  |  |  |  | 
12 | O=C1NC(=O)/C(=C/c2cnn3c(NC4CC4)cc(NCC4CC4)nc23)N1 [Example T2] | 6900 | 998 | < 10 | 2490 |  |  |  |  | 
13 | O=C1NC(=O)/C(=C/c2cnn3c(NC4CC4)cc(-c4cccc(C(F)(F)F)c4)nc23)N1 [Example N4] | 12500 | > 2500 | < 10 | > 30000 |  |  |  |  | 
14 | Cc1c(Nc2ccc(C#N)cc2F)nc2c(C=C3NC(=O)NC3=O)cnn2c1NC1CC1 [Example C46] |  |  | < 10 |  | 15200 | 59.266 | 6290 |  | 
15 | O=C1NC(=O)/C(=C/c2cnn3c(NC4CC4)cc(-c4cccnc4)nc23)N1 [Example U4] | 8130 | > 2500 | < 10 | 1260 |  |  |  |  | 
16 | O=C1NC(=O)/C(=C/c2cnn3c(NC4CC4)cc(-c4cccc(OCC5CC5)c4)nc23)N1 [Example F4] | 6590 | > 2500 | < 10 | 1300 |  |  |  |  | 
17 | O=C1NC(=O)/C(=C/c2cnn3c(NC4CC4)cc(-c4cccc(CO)c4)nc23)N1 [Example V3] | 5170 | 649 | < 10 | 477 |  |  |  |  | 

Row | Compound | IC50 [1, 2] [nM] | IC50 (recombinant human PIM2; [3]) [nM] | IC50 (CK2 ααββ) [nM] | IC50 (MDAMB453; [4]) [nM] | IC50 ([1]; read-out: AB: BxPC3 IC50) [nM] | PIM2: % inh […] (recombinant human PIM2) [%] | IC50 (MDAMB453; [5]) [nM] | IC50 (recombinant human PIM2; [6]) [nM] | IC50 (recombinant human PIM2; 5 um ATP, read-out: PIM2: IC50 (5 um ATP)) [nM]
18 | O=C1NC(=O)/C(=C/c2cnn3c(NC4CC4)cc(NC4CCCC4)nc23)N1 [Example O2] | 10400 | > 2500 | < 10 | 4510 |  |  |  |  | 
19 | O=C1NC(=O)C(=Cc2cnn3c(NC4CC4)cc(Oc4cccc(Cl)c4)nc23)N1 [Compound U38] |  |  | < 10 |  | 20900 |  | 10700 | > 2500 | 
20 | O=C1NC(=O)/C(=C/c2cnn3c(NC4CC4)cc(Nc4ccc(Cl)cc4)nc23)N1 [Example I1] | 15100 | > 2500 | < 10 | 11100 |  |  |  |  | 
21 | O=C1NC(=O)/C(=C/c2cnn3c(NC4CC4)cc(NN4CCOCC4)nc23)N1 [Example S2] | 3880 | 1300 | < 10 | 3510 |  |  |  |  | 
22 | O=C1NC(=O)/C(=C/c2cnn3c(NC4CC4)cc(Nc4cccc(C(F)(F)F)c4)nc23)N1 [Example J1] | 3920 | 2480 | < 10 | 7120 |  |  |  |  | 
23 | CN1C(=O)NC(=Cc2cnn3c(NC4CC4)cc(Nc4ccc(C#N)cc4)nc23)C1=O [Example D42] |  |  | < 100 |  | 2800 | −39.275 | 693 |  | 
24 | O=C1NC(=O)/C(=C/c2cnn3c(NCC4CC4)cc(Nc4cccc(Cl)c4)nc23)N1 [Example T1] | 12300 | 509 | < 10 | 2200 |  |  |  |  | 
25 | CC(=O)c1cccc(-c2cc(NC3CC3)n3ncc(/C=C4\NC(=O)NC4=O)c3n2)c1 [Example W4] | > 30000 | 2080 | < 10 | 12300 |  |  |  |  | 
26 | COC(=O)Nc1cc(NC2CC2)n2ncc(/C=C3\NC(=O)NC3=O)c2n1 [Example N2] | 9180 | 845 | < 10 | 3040 |  |  |  |  | 
27 | N#Cc1cccc(Cc2cc(NC3CC3)n3ncc(/C=C4\NC(=O)NC4=O)c3n2)c1 | 19700 |  | < 10 | > 30000 |  |  |  |  | > 2500
28 | Cc1cc(COc2cccc(-c3cc(NC4CC4)n4ncc(/C=C5\NC(=O)NC5=O)c4n3)c2)no1 [Example G4] | 1190 | > 2500 | < 10 | 1150 |  |  |  |  | 
29 | Cc1c(Nc2ccc(C#N)cc2Cl)nc2c(C=C3NC(=O)NC3=O)cnn2c1NC1CC1 [Example D46] |  |  | < 10 |  | 29900 | 53.934 | 6240 |  | 
30 | CN(C)CCCOc1ccc(Nc2cc(NC3CC3)n3ncc(C=C4NC(=O)NC4=O)c3n2)cc1Cl [Example T42] |  |  | < 10 |  | 5330 | 44.33 | 2090 |  | 
31 | CN(C)C1CCN(C(=O)c2cccc(Nc3cc(Nc4cccc(Cl)c4)nc4c(/C=C5\NC(=O)NC5=O)cnn34)c2)C1 (stereo not drawn) [Example C7] | > 30000 | 1440 | < 10 | 6440 |  |  |  |  | 
32 | CCS(=O)(=O)Nc1cccc(-c2cc(NC3CC3)n3ncc(/C=C4\NC(=O)NC4=O)c3n2)c1 [Example X4] | > 30000 | 1730 | < 10 | > 30000 |  |  |  |  | 
33 | COc1ccc(Nc2cc(NC3CC3)n3ncc(/C=C4\NC(=O)NC4=O)c3n2)cc1Cl [Example K1] | 5660 | > 2500 | < 10 | 7710 |  |  |  |  | 
